Test results published in patent US6680330B2, “Rapamycin dialdehydes” (Wyeth, priority 2001, dated 2004).
In brackets after ≈: the same amount, converted by molar mass.

Tests used:
Type in all cases: cell-based
[1] = tested on: 3T3 (ovarian) tumor cell line; assay: Antineoplastic activity, tumor cell growth inhibition (sulforhodamine B), 3T3; conditions: 48 hours; for Antineoplastic Activity IC50: 3T3 cells
Description: (§1) Antineoplastic activity for the compounds of this invention was confirmed by evaluating the antineoplastic activity of representative compounds of this invention (Examples 1-5) against six tumor cell lines in vitro. Briefly, tumor cells from six cell lines were placed in wells of a 96 well microtiter plate. The following tumor cell lines were used: 3T3 (ovarian), 3T3/H2N (ovarian—resistant to cis-platin), A431 (vulva epidermoid origin), SW620 (colon), SKBR3 (breast), and MDA-435 (breast). The tumors cells were grown in the presence of serial dilutions of the compound to be evaluated for 48 hours, and cell growth determined using a colorimetric procedure (sulforhrodamine B). The inhibition of growth was calculated compared to the number of cells at the time of test compound addition.

[2] = tested on: 3T3/H2N (ovarian—resistant to cis-platin) tumor cell line; assay: Antineoplastic activity, tumor cell growth inhibition (sulforhodamine B), 3T3/H2N; conditions: 3T3/H2N cells, 48 hours
Description: as §1

[3] = tested on: A431 (vulva epidermoid origin) tumor cell line; assay: Antineoplastic activity, tumor cell growth inhibition (sulforhodamine B), A431; conditions: 48 hours; for Antineoplastic Activity IC50: A431 cells
Description: as §1

[4] = tested on: SKBR3 (breast) tumor cell line; assay: Antineoplastic activity, tumor cell growth inhibition (sulforhodamine B), SKBR3; conditions: 48 hours; for Antineoplastic Activity IC50: SKBR3 cells
Description: as §1

[5] = tested on: MDA-435 (breast) tumor cell line; assay: Antineoplastic activity, tumor cell growth inhibition (sulforhodamine B), MDA-435; conditions: MDA435 cells, 48 hours
Description: as §1

[6] = tested on: SW620 (colon) tumor cell line; assay: Antineoplastic activity, tumor cell growth inhibition (sulforhodamine B), SW620; conditions: 48 hours; for Antineoplastic Activity IC50: SW620 cells
Description: as §1

SH-SY5Y cells = assay: Neurite outgrowth (neuroregeneration) test in SH-SY5Y cells; conditions: aphidicolin 5 days, mean ± SEM
Description: The neuroregeneration activity for the compounds of this invention was confirmed in a standard pharmacological test procedure by evaluating rapamycin dialdehyde (Example 1) and rapamycin 29-enol (Example 2), as representative compounds of this invention, against SH-SY5Y cells in vitro [Gold et al., Exp Neurol 147: 269-278, 1997]. Briefly, SH-SY5Y cells were placed in 6-well plate treated with aphidicolin for 5 days followed by the test compounds using 6-well plates. For controls, wells were untreated, or treated with nerve growth factor (NGF) alone. Test wells were treated with NGF plus Example 1 and Example 2, or rapamycin. Cells were photographed at 168 hours. Analysis of neuritic lengths was performed on photographic prints using a Houston Instrument HI-PAD digitizing tablet connected to an IBM XT computer with appropriate software (Bioquant IV, R&M Biometrics, Nashville, Tenn.). Mean values for axonal areas were compared using by ANOVA (STATVIEW, Abacus Concepts, Inc., Berkeley, Calif.). The following table summarizes the results that were obtained.

Molecule	Antineoplastic Activity IC50 [3]	Antineoplastic Activity IC50 [4]	Antineoplastic Activity IC50 [5]	Antineoplastic Activity IC50 [6]	IC50 ([3]; Homo sapiens, A-431, A431 cells)	IC50 ([4]; Homo sapiens, SK-BR-3, SKBR3 cells)	IC50 [5]	IC50 ([6]; Homo sapiens, SW-620, SW620 cells)	Antineoplastic Activity IC50 [1]	Antineoplastic Activity IC50 [2]	Mean Neurite Length after 168 h (SH-SY5Y cells; test compound plus NGF)	IC50 ([1]; Mus musculus, NIH3T3, 3T3 cells)	IC50 [2]	Mean Neurite Length after 168 h (SH-SY5Y cells; NGF alone)
CO[C@@H](C[C@@H]1CC[C@@H](C)[C@](O)(C(=O)C(=O)N2CCCC[C@H]2C(=O)OC(CC(=O)[C@H](C)/C=C(\C)[C@@H](O)[C@@H](OC)C(=O)[C@H](C)C[C@H](C)/C=C/C=O)[C@H](C)C[C@@H]2CC[C@@H](O)[C@H](OC)C2)O1)/C(C)=C/C=O (stereo partly drawn) [Example I, Rapamycin Dialdehyde]					0.91 µg/mL (≈ 0.962 µM)	0.52 µg/mL (≈ 0.55 µM)	1.23 µg/mL (≈ 1.3 µM)	1.41 µg/mL (≈ 1.49 µM)			229.8 ± 9.5 (n = 141) μm	0.72 µg/mL (≈ 0.761 µM)	0.68 µg/mL (≈ 0.719 µM)	
NGF: nerve growth factor, used alone as control and together with test compounds														196.5 ± 7.7 (n = 112) μm
Rapamycin 29-Enol [Example II]	>5 µg/mL	>5 µg/mL	>5 µg/mL	>5 µg/mL					>5 µg/mL	>5 µg/mL	239.7 ± 10.0 (n = 155) μm			

The next lines start with results.

Antineoplastic Activity IC50 [3]	Antineoplastic Activity IC50 [4]	Antineoplastic Activity IC50 [5]	Antineoplastic Activity IC50 [6]	IC50 ([3]; Homo sapiens, A-431, A431 cells)	IC50 ([4]; Homo sapiens, SK-BR-3, SKBR3 cells)	IC50 [5]	IC50 ([6]; Homo sapiens, SW-620, SW620 cells)	Molecule	Antineoplastic Activity IC50 [1]	Antineoplastic Activity IC50 [2]	Mean Neurite Length after 168 h (SH-SY5Y cells; test compound plus NGF)	IC50 ([1]; Mus musculus, NIH3T3, 3T3 cells)	IC50 [2]	Mean Neurite Length after 168 h (SH-SY5Y cells; NGF alone)
>5 µg/mL	2.69 µg/mL	>5 µg/mL	>5 µg/mL					42-O-(2-Hydroxy)Ethyl Rapamycin 29-enol [Example V]	>5 µg/mL	4.96 µg/mL				
2.64 µg/mL	0.36 µg/mL	1.1 µg/mL	3.04 µg/mL					42-O-(2-Hydroxy)Ethyl Rapamycin Dialdehyde [IV]	1.5 µg/mL	0.72 µg/mL				
